Reference: patent publication US11104676B2 (priority 2018, dated 2021)

Biological target: GST-tagged recombinant human TYRO3 kinase domain (Homo sapiens (Human), UniProt Q06418)
Conditions: read-out: TYRO3 enzyme IC50

GST-tagged recombinant human TYRO3 kinase domain, sequence (Q06418 518-790): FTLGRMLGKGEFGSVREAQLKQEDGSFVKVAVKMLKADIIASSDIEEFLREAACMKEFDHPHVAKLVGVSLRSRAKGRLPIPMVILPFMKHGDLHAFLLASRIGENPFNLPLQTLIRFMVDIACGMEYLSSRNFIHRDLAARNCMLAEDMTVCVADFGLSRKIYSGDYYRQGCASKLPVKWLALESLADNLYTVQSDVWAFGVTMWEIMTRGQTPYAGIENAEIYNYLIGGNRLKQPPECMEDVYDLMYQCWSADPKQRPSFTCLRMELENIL

Compound	IC50
COC[C@@H]1CCC[C@@H]1Nc1n[nH]c2nccc(Oc3ccc(NC(=O)c4ccnn(-c5ccc(F)cc5)c4=O)cc3F)c12 (relative stereo) [Example 28, N-(3-fluoro-4-((3-((cis-2-(methoxymethyl)cyclopentyl)amino)-1H-pyrazolo[3,4-b]pyridin-4-yl)oxy)phenyl)-2-(4-fluorophenyl)-3-oxo-2,3-dihydropyridazine-4-carboxamide]	375 nM
O=C(Nc1ccc(Oc2ccnc3[nH]nc(NC4CC(F)(F)C4)c23)c(F)c1)c1ccnn(-c2ccc(F)cc2)c1=O [Example 12, N-(4-((3-((3,3-difluorocyclobutyl)amino)-1H-pyrazolo[3,4-b]pyridin-4-yl)oxy)-3-fluorophenyl)-2-(4-fluorophenyl)-3-oxo-2,3-dihydropyridazine-4-carboxamide]	295 nM
COCC(C)(C)Nc1n[nH]c2nccc(Oc3ccc(NC(=O)c4ccnn(-c5ccc(F)cc5)c4=O)cc3F)c12 [Example 18, N-(3-fluoro-4-((3-((1-methoxy-2-methylpropan-2-yl)amino)-1H-pyrazolo[3,4-b]pyridin-4-yl)oxy)phenyl)-2-(4-fluorophenyl)-3-oxo-2,3-dihydropyridazine-4-carboxamide]	131 nM
COCC1(Nc2n[nH]c3nccc(Oc4ccc(NC(=O)c5ccnn(-c6ccc(F)cc6)c5=O)cc4F)c23)CCCC1 [Example 20, N-(3-fluoro-4-((3-((1-(methoxymethyl)cyclopentyl)amino)-1H-pyrazolo[3,4-b]pyridin-4-yl)oxy)phenyl)-2-(4-fluorophenyl)-3-oxo-2,3-dihydropyridazine-4-carboxamide]	536 nM
COCC1(Nc2n[nH]c3nccc(Oc4ccc(NC(=O)c5ccnn(-c6ccc(F)cc6)c5=O)cc4F)c23)CCC1 [Example 21, N-(3-fluoro-4-((3-((1-(methoxymethyl)cyclobutyl)amino)-1H-pyrazolo[3,4-b]pyridin-4-yl)oxy)phenyl)-2-(4-fluorophenyl)-3-oxo-2,3-dihydropyridazine-4-carboxamide]	188 nM
COCCC(C)(C)Nc1n[nH]c2nccc(Oc3ccc(NC(=O)c4ccnn(-c5ccc(F)cc5)c4=O)cc3F)c12 [Example 22, N-(3-fluoro-4-((3-((4-methoxy-2-methylbutan-2-yl)amino)-1H-pyrazolo[3,4-b]pyridin-4-yl)oxy)phenyl)-2-(4-fluorophenyl)-3-oxo-2,3-dihydropyridazine-4-carboxamide]	318 nM
O=C(Nc1ccc(Oc2ccnc3[nH]nc(NCC4CCS(=O)(=O)C4)c23)c(F)c1)c1ccnn(-c2ccc(F)cc2)c1=O (stereo not drawn) [Example 24, N-(4-((3-(((1,1-dioxidotetrahydrothiophen-3-yl)methyl)amino)-1H-pyrazolo[3,4-b]pyridin-4-yl)oxy)-3-fluorophenyl)-2-(4-fluorophenyl)-3-oxo-2,3-dihydropyridazine-4-carboxamide]	120 nM
COCC(C)(C)Nc1n[nH]c2nccc(Oc3ccc(NC(=O)c4ccnn(-c5ccc(F)cc5)c4=O)nc3)c12 [Example 71, 2-(4-fluorophenyl)-N-(5-((3-((1-methoxy-2-methylpropan-2-yl)amino)-1H-pyrazolo[3,4-b]pyridin-4-yl)oxy)pyridin-2-yl)-3-oxo-2,3-dihydropyridazine-4-carboxamide]	192 nM
Cc1c(C(=O)Nc2ccc(Oc3ccnc4[nH]nc(N[C@H](C)CO)c34)c(F)c2)c(=O)n(-c2ccccc2)n1C [Example 86, (R)-N-(3-fluoro-4-((3-((1-hydroxypropan-2-yl)amino)-1H-pyrazolo[3,4-b]pyridin-4-yl)oxy)phenyl)-1,5-dimethyl-3-oxo-2-phenyl-2,3-dihydro-1H-pyrazole-4-carboxamide]	104 nM
C[C@H](CO)Nc1n[nH]c2nccc(Oc3ccc(NC(=O)c4cn(C)n(-c5ccccc5)c4=O)cc3F)c12 [Example 87, (R)-N-(3-fluoro-4-((3-((1-hydroxypropan-2-yl)amino)-1H-pyrazolo[3,4-b]pyridin-4-yl)oxy)phenyl)-1-methyl-3-oxo-2-phenyl-2,3-dihydro-1H-pyrazole-4-carboxamide]	432 nM
C[C@H](CO)Nc1n[nH]c2nccc(Oc3ccc(NC(=O)c4cn(C)n(-c5ccc(F)cc5)c4=O)cc3F)c12 [Example 88, (R)-N-(3-fluoro-4-((3-((1-hydroxypropan-2-yl)amino)-1H-pyrazolo[3,4-b]pyridin-4-yl)oxy)phenyl)-2-(4-fluorophenyl)-1-methyl-3-oxo-2,3-dihydro-1H-pyrazole-4-carboxamide]	364 nM
CC(C)n1cc(C(=O)Nc2ccc(Oc3ccnc4[nH]nc(N[C@H](C)CO)c34)c(F)c2)c(=O)n(-c2cnn(C)c2)c1=O [Example 93, (R)-N-(3-fluoro-4-((3-((1-hydroxypropan-2-yl)amino)-1H-pyrazoo[3,4-b]pyridin-4-yl)oxy)phenyl)-1-isopropyl-3-(1-methyl-1H-pyrazol-4-yl)-2,4-dioxo-1,2,3,4-tetrahydropyrimidine-5-carboxamide]	767 nM
CC(C)n1cc(C(=O)Nc2ccc(Oc3ccnc4[nH]nc(N[C@H](C)CO)c34)c(F)c2)c(=O)n(C(C)C)c1=O [Example 95, (R)-N-(3-fluoro-4-((3-((1-hydroxypropan-2-yl)amino)-1H-pyrazolo[3,4-b]pyridin-4-yl)oxy)phenyl)-1,3-diisopropyl-2,4-dioxo-1,2,3,4-tetrahydropyrimidine-5-carboxamide]	875 nM

Now from value to compound:

IC50	Compound
546 nM	CC(C)n1cc(C(=O)Nc2ccc(Oc3ccnc4[nH]nc(N[C@H](C)CO)c34)c(F)c2)c(=O)n(C2CCOCC2)c1=O [Example 99, (R)-N-(3-fluoro-4-((3-((1-hydroxypropan-2-yl)amino)-1H-pyrazolo[3,4-b]pyridin-4-yl)oxy)phenyl)-1-isopropyl-2,4-dioxo-3-(tetrahydro-2H-pyran-4-yl)-1,2,3,4-tetrahydropyrimidine-5-carboxamide]
198 nM	C[C@H](CO)Nc1n[nH]c2nccc(Oc3ccc(NC(=O)C4CCCN(c5ccc(F)cc5)C4=O)cc3F)c12 (stereo partly drawn) [Example 101, N-(3-fluoro-4-((3-(((R)-1-hydroxypropan-2-yl)amino)-1H-pyrazolo[3,4-b]pyridin-4-yl)oxy)phenyl)-1-(4-fluorophenyl)-2-oxopiperidine-3-carboxamide]
137 nM	C[C@H](CO)Nc1n[nH]c2nccc(Oc3ccc(NC(=O)c4cc5c(n(-c6ccc(F)cn6)c4=O)CCCC5=O)cc3F)c12 [Example 111, (R)-N-(3-fluoro-4-((3-((1-hydroxypropan-2-yl)amino)-1H-pyrazolo[3,4-b]pyridin-4-yl)oxy)phenyl)-1-(5-fluoropyridin-2-yl)-2,5-dioxo-1,2,5,6,7,8-hexahydroquinoine-3-carboxamide]
348 nM	CCn1nc(C(=O)Nc2ccc(Oc3ccnc4[nH]nc(N[C@@H](C)CO)c34)c(F)c2)c(=O)n(-c2ccc(F)c(F)c2)c1=O [Example 132, (S)-4-(3,4-difluorophenyl)-2-ethyl-N-(3-fluoro-4-((3-((1-hydroxypropan-2-yl)amino)-1H-pyrazolo[3,4-b]pyridin-4-yl)oxy)phenyl)-3,5-dioxo-2,3,4,5-tetrahydro-1,2,4-triazine-6-carboxamide]
130 nM	CCn1nc(C(=O)Nc2ccc(Oc3ccnc4[nH]nc(N[C@H](C)CO)c34)c(F)c2)c(=O)n(-c2ccc(F)c(F)c2)c1=O [Example 133, (R)-4-(3,4-difluorophenyl)-2-ethyl-N-(3-fluoro-4-((3-((1-hydroxypropan-2-yl)amino)-1H-pyrazolo[3,4-b]pyridin-4-yl)oxy)phenyl)-3,5-dioxo-2,3,4-5-tetrahydro-1,2,4-triazine-6-carboxamide]
118 nM	CCn1cc(C(=O)Nc2ccc(Oc3ccnc4[nH]nc(NC(C)(C)COC)c34)c(F)c2)c(=O)n(-c2ccc(F)cc2)c1=O [Example 157, 1-ethyl-N-(3-fluoro-4-((3-((1-methoxy-2-methylpropan-2-yl)amino)-1H-pyrazolo[3,4-b]pyridin-4-yl)oxy)phenyl)-3-(4-fluorophenyl)-2,4-dioxo-1,2,3,4-tetrahydropyrimidine-5-carboxamide]
104 nM	COCC(C)(C)Nc1n[nH]c2nccc(Oc3ccc(NC(=O)c4cn(C)c(=O)n(-c5ccc(F)cc5)c4=O)cc3F)c12 [Example 158, N-(3-fluoro-4-((3-((1-methoxy-2-methylpropan-2-yl)amino)-1H-pyrazolo[3,4-b]pyridin-4-yl)oxy)phenyl)-3-(4-fluorophenyl)-1-methyl-2,4-dioxo-1,2,3,4-tetrahydropyrimidine-5-carboxamide]
420 nM	COCC(C)(C)Nc1n[nH]c2nccc(Oc3ccc(NC(=O)c4cn(CCO)c(=O)n(-c5ccc(F)cc5)c4=O)cc3F)c12 [Example 159, N-(3-fluoro-4-((3-((1-methoxy-2-methylpropan-2-yl)amino)-1H-pyrazolo[3,4-b]pyridin-4-yl)oxy)phenyl)-3-(4-fluorophenyl)-1-(2-hydroxyethyl)-2,4-dioxo-1,2,3,4-tetrahydropyrimidine-5-carboxamide]
224 nM	CC(CC(F)F)Nc1n[nH]c2nccc(Oc3ccc(NC(=O)c4cn(C)cc(-c5ccc(F)cc5)c4=O)nc3)c12 (stereo not drawn) [Example 167, N-(5-((3-((4,4-difluorobutan-2-yl)amino)-1H-pyrazolo[3,4-b]pyridin-4-yl)oxy)pyridin-2-yl)-5-(4-fluorophenyl)-1-methyl-4-oxo-1,4-dihydropyridine-3-carboxamide]
248 nM	Cc1cc(C(=O)Nc2ccc(Oc3ccnc4[nH]nc(NC(C)CC(F)F)c34)cn2)c(=O)n(-c2ccc(F)cc2)c1 (stereo not drawn) [Example 168, N-(5-((3-((4,4-difluorobutan-2-yl)amino)-1H-pyrazolo[3,4-b]pyridin-4-yl)oxy)pyridin-2-yl)-1-(4-fluorophenyl)-5-methyl-2-oxo-1,2-dihydropyridine-3-carboxamide]
133 nM	CCOC[C@H](C)Nc1n[nH]c2nccc(Oc3ccc(NC(=O)c4cc(C)cn(-c5ccc(F)cc5)c4=O)cc3F)c12 [Example 172, (S)-N-(4-((3-((1-ethoxypropan-2-yl)amino)-1H-pyrazolo[3,4-b]pyridin-4-yl)oxy)-3-fluorophenyl)-1-(4-fluorophenyl)-5-methyl-2-oxo-1,2-dihydropyridine-3-carboxamide]
